Results reported in patent publication US20200038306A1, “[…] DERIVATIVES AS SELF-TANNING SUBSTANCES” (Merck Patent GmbH, priority 2016, published 2020).

Experiments:
[1] = system: Normal Human Epidermal Keratinocytes (NHEK) and Normal Human Epidermal Melanocytes, Lightly Pigmented (NHEM-LP) co-culture; assay: Synthesis of melanin in NHEK/NHEM-LP co-culture; format: cell-based; settings: 240 hours (10 days) incubation, melanin extracted with 0.5 N NaOH, OD 405 nm, triple determination
Experimental: Evaluation of the Synthesis of Melanin in a Cell Culture Model Containing Two Cell Types (Co-Culture), Firstly Normal Human Epidermal Keratinocytes (NHEK) and Secondly Normal Human Epidermal Melanocytes, Lightly Pigmented (NHEM-LP)
The two cell types NHEK and NHEM-LP (NHEK:NHEM-LP) are employed in a ratio of 2:1.
The culture medium consists of the media keratinocyte-SFM (2 parts by volume) and medium M254 (1 part by volume).
Keratinocyte-SFM contains 0.25 ng/ml of epidermal growth factor (EGF), 25 μg/ml of pituitary extract (PE) and 25 μg/ml of gentamycin and was purchased from Thermo Fisher Scientific.
M254 contains PMA-free HMGS-2, 5 μg/ml of insulin, 50 U/ml of penicillin, 50 μg/ml of streptomycin and 25 μg/ml of gentamycin and was purchased from Thermo Fisher Scientific.
IBMX denotes the compound 3-isobutyl-1-methylxanthine.
Cell Culture and Treatment
NHEK and NHEM-LP were incubated in the culture medium in microtitre plates (24-well plates) for 24 hours (37° C., 5% CO2). The culture medium was removed and replaced by an assay medium which contained the culture medium and compounds Ib and Id to be tested or alternatively no test substance, the reference L-tyrosine (1 mM), 200 μM of IBMX or the solvent control 0.1% of THF, 0.15% of THF, 0.1% of DMSO, 0.15% of DMSO, 0.17% of DMSO. Compound Ib was added as solution (0.15% in DMSO). Compound Id was added as solution (0.15% in THF). After replacement of the assay medium, the cells were incubated again for 240 hours (10 days). On days 3 and 7, assay medium was again added. All experimental investigations were carried out using a triple determination. After the end of the incubation, the melanin was extracted by cell lysis with 0.5 N NaOH. The optical density (OD) of each sample was measured at 405 nm. The melanin quantity was calculated from melanin standards (standard curve 0.39 to 100 μg/ml of melanin).

[2] = system: 3D melanized reconstructed human epidermis (RHEs-MEL); assay: Tanning properties in vitro on reconstructed epidermis; format: cell-based; settings: systemic treatment in culture medium for 10 days, positive control IBMX 100 μM
Experimental: Evaluation of the Tanning Properties In Vitro on Reconstructed Epidermis
In this study, the tanning properties of compound Id are investigated in vitro on 3D melanized reconstructed human epidermis (RHEs-MEL). The compound IBMX (3-isobutyl-1-methylxanthine) 100 μM is employed as positive control. Compound Id is employed 20 μM and […]. Untreated reconstructed skin is used as negative control. The in vitro skin is treated systemically with the compounds to be investigated in a culture medium for 10 days and then analysed.

SMILES: COc1ccc(CC2C(=O)NC(=O)NC2=O)cc1 [Compound Ib, 5-(4-methoxybenzyl)pyrimidine-2,4,6-trione]
- stimulation of melanin synthesis ([1]; 45 μM): 20%

SMILES: CCCCN1C(=O)NC(=O)C(Cc2ccccc2)C1=O (centres unmarked) [Compound Id, 5-benzyl-1-butylpyrimidine-2,4,6-trione]
- stimulation of melanin synthesis ([1]; 20 μM): 17%
- stimulation of melanin synthesis ([1]; 45 μM): 25%
- tanning properties (reduction of the ITA value and visual colour difference) compared with IBMX ([2]; 20 μM): comparably good properties as IBMX at 100 μM
- tanning properties (reduction of the ITA value and visual colour difference) compared with IBMX [2]: comparably good properties as IBMX at 100 μM
